Results on 25 molecules are retold here after US20080125432A1 (Devgen NV, priority 2004, published 2008).

Like-named read-outs stand apart in the source and are kept apart here.

Data set [1] deals with human Kv4.3/KChIP2.2 potassium channel. In words: Whole cell patch clamp, CHO-K1 cells stably expressing human Kv4.3/KChIP2.2. It counts as cell-based. To be noted: selectivity for Kv4.3 vs hERG (Patch Clamp test); >5 considered very selective.
The target of data set [2] is T1, human Kv4.3/KChIP2.2 potassium channel (Homo sapiens, UniProt Q9UK17).
T1 construct: expressed in transfected cells
T1 sequence (Q9UK17 1-655): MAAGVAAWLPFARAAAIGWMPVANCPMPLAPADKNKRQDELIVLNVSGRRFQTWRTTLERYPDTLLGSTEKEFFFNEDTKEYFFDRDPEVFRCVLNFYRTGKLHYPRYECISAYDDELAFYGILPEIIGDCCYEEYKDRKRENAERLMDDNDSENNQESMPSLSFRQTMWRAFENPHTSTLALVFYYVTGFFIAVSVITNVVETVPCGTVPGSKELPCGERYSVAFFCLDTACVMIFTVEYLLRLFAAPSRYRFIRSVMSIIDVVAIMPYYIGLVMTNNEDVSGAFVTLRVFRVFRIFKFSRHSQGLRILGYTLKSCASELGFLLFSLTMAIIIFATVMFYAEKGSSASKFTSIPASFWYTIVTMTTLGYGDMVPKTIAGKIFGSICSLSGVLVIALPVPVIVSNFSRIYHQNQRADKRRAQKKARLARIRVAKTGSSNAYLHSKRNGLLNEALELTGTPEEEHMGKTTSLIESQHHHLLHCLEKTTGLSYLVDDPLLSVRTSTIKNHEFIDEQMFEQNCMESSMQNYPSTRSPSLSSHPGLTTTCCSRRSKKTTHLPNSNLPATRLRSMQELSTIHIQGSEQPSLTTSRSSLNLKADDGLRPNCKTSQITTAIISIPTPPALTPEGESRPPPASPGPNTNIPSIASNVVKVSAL
Described as above. In kind it is cell-based. The conditions noted are these: for remaining activity at 1 µM: CHO-K1.

The mark [3] stands for this setting: Kv4.3 mediated current, charge, patch clamp, read-out: Kv4.3 charge IC50.
[4] abbreviates: estimated by Hill fit with hill=1, ymax=100, tested at 2 μM, n=2, read-out: IC50 (μM) Kv4.3.
Setting [5] is: remaining current measured after application of the compound and relative to the blank, read-out: Kv4.3 charge in %.
[6] abbreviates: remaining peak height measured after application of the compound and relative to the blank, read-out: Kv4.3 peak in %.

By IC50 is commonly meant the concentration that gives 50% inhibition. “2-(4-bromo-phenylamino)-4-methyl-thiazole-5-carboxylic acid 1,2,3,4-tetrahydroisoquinolinamide [Compound 66]”: in data set [1], the “Ratio hERG/Kv4.3” value turned out to be 29.1. The IC50 in data set [2] (setting [3]) and in data set [2] (setting [4]) was 0.34 µM in each case.
With `Cc1nc(Nc2ccc(F)cc2)sc1C(=O)N[C@H](C)c1ccc2ccccc2c1` [Compound 16, 2-(4-fluoro-phenylamino)-4-methyl-thiazole-5-carboxylic acid (R)-1-(naphthalen-2-yl)ethyl amide], the IC50 in data set [2] (setting [4]) is 1.84 µM.
`Cc1nc(Nc2ccc(Br)cc2)sc1C(=O)N[C@@H](C)c1ccc2ccccc2c1` [Compound 18, 2-(4-bromo-phenylamino)-4-methyl-thiazole-5-carboxylic acid (S)-1-(naphthalen-2-yl)ethyl amide]: the “Ratio hERG/Kv4.3” value in data set [1] is listed as 6.9. Moreover, the IC50 in data set [2] (setting [4]) was 3.85 µM.
Take `Cc1nc(Nc2ccc(Br)cc2)sc1C(=O)N[C@H](C)c1ccc2ccccc2c1` [Compound 19, 2-(4-bromo-phenylamino)-4-methyl-thiazole-5-carboxylic acid (R)-1-(naphthalen-2-yl)ethyl amide]: the “Ratio hERG/Kv4.3” value in data set [1] is given as 33.1. The IC50 in data set [2] (setting [4]) was 2.72 µM.
With `Cc1nc(Nc2ccc(Cl)cc2)sc1C(=O)N[C@@H]1CCC[C@H]1OCc1ccccc1` [Compound 30, 2-(4-chloro-phenylamino)-4-methyl-thiazole-5-carboxylic acid (1R,2R)-2-(benzyloxycyclopent-1-yl) amide], the “Ratio hERG/Kv4.3” value in data set [1] was found to be 8.7. Moreover, the IC50 in data set [2] (setting [3]) and in data set [2] (setting [4]) was 1.25 µM in each case.
Take `COc1ccccc1Nc1nc(C)c(C(=O)N[C@@H]2CCC[C@H]2OCc2ccccc2)s1` [Compound 31, 2-(2-methoxy-phenylamino)-4-methyl-thiazole-5-carboxylic acid (1R,2R)-2-(benzyloxycyclopent-1-yl) amide]: the “Ratio hERG/Kv4.3” value in data set [1] amounted to 8.7. The IC50 in data set [2] (setting [4]) is 2.91 µM.
The corresponding values for `COc1ccc(OC)c(Nc2nc(C)c(C(=O)N[C@@H]3CCC[C@H]3OCc3ccccc3)s2)c1` [Compound 33, 2-(2,5-dimethoxyphenylamino)-4-methylthiazole-5-carboxylic acid (1R,2R)-2-(benzyloxycyclopent-1-yl) amide] are 10.0 and 3.35 µM.
The corresponding values for `COc1cccc([C@@H](C)NC(=O)c2sc(Nc3cc(Cl)ccc3OC)nc2C)c1` [Compound 34] are 5.4 and 1.62 µM.
On to `Cc1nc(Nc2ccc(Cl)cc2)sc1C(=O)N[C@H](C)c1ccc2ccccc2c1` [Compound 52, 2-(4-chloro-phenylamino)-4-methyl-thiazole-5-carboxylic acid (R)-1-(2-naphtalen-2-yl-ethyl)-amide], for which, in data set [1], the “Ratio hERG/Kv4.3” value was 65.4. Besides, the IC50 in data set [2] (setting [3]) and in data set [2] (setting [4]) was 0.34 µM throughout.
For `Cc1nc(Nc2ccc(Cl)cc2)sc1C(=O)N[C@@H](C)c1ccc2ccccc2c1` [Compound 54, 2-(4-chloro-phenylamino)-4-methyl-thiazole-5-carboxylic acid (S)-1-(2-naphtalen-2-yl-ethyl)-amide], the “Ratio hERG/Kv4.3” value in data set [1] is reported as 6.6. The concentration for half-maximal inhibition (IC50) in data set [2] (setting [3]) and in data set [2] (setting [4]) was 2.41 µM in each case.
In the case of `COc1ccccc1Nc1nc(C)c(C(=O)N[C@@H](C)c2ccc3ccccc3c2)s1` [Compound 55, 2-(2-methoxy-phenylamino)-4-methyl-thiazole-5-carboxylic acid (S)-1-(2-naphtalen-2-yl-ethyl)-amide], in data set [1], the “Ratio hERG/Kv4.3” value is 5.0. The half-inhibitory concentration (IC50) in data set [2] (setting [4]) was 2.02 µM.
What is called melting point is the temperature, or range, at which the solid turns liquid. Take `COc1ccccc1Nc1ccc(C(=O)N[C@H]2CCC[C@@H]2OCc2ccccc2)s1` [Compound 75, 2-(2-methoxy-phenylamino)-thiophene-5-carboxylic acid ((1S,2S)-2-benzyloxycyclopent-1-yl) amide]: the melting point lay within 69.7 to 71.6 °C. Also, the remaining activity at 1 µM in data set [2] (setting [5]) stood at 41%. Also, the remaining activity at 1 µM in data set [2] (setting [6]) worked out at 81%.
The molecule `COc1ccccc1Nc1nccc(C(=O)N[C@H]2CCC[C@@H]2OCc2ccccc2)n1` [Compound 76, 2-(2-methoxy-phenylamino)-pyrimidine-4-carboxylic acid ((1S,2S)-2-benzyloxycyclopent-1-yl) amide] came in with a melting point of 97.3 to 99.8 °C. The remaining activity at 1 µM in data set [2] (setting [5]) stood at 62%. Moreover, the remaining activity at 1 µM in data set [2] (setting [6]) came to 99%.
The corresponding values for `Cc1nc(Sc2ccccc2)sc1C(=O)N[C@H]1CCC[C@@H]1OCc1ccccc1` [Compound 81, 4-methyl-2-phenylsulfanyl-thiazole-5-carboxylic acid ((1S,2S)-2-benzyloxycyclopent-1-yl) amide] are 129.5 to 132.4 °C, 51% and 90%.
The corresponding values for `Cc1nc(Nc2cccc3ccccc23)sc1C(=O)N[C@H]1CCC[C@@H]1OCc1ccccc1` [Compound 93] are 102.4 to 108.2 °C, 62% and 89%.
Take `Cc1nc(Nc2cccc3cccnc23)sc1C(=O)N[C@H]1CCC[C@@H]1OCc1ccccc1` [Compound 94, 4-methyl-2-(quinolin-8-ylamino)-thiazole-5-carboxylic acid ((1S,2S)-2-benzyloxycyclopent-1-yl) amide]: the remaining activity at 1 µM stood at 49% in data set [2] (setting [5]) and 89% in data set [2] (setting [6]).
`Cc1nc(Nc2ccc3c(c2)OCCO3)sc1C(=O)N[C@H]1CCC[C@@H]1OCc1ccccc1` [Compound 95]: the melting point was 178 to 180.1 °C. Also, the remaining activity at 1 µM in data set [2] (setting [5]) came out at 61%. Further, in data set [2] (setting [6]), the remaining activity at 1 µM came out at 91%.
The matching figures for `COc1ccccc1Nc1nc(C)c(C(=O)NCc2ccccc2SC)s1` [Compound 97]: 66.5 °C, 66% and 96%.
`COc1ccccc1Nc1nc(C)c(C(=O)NCc2c(C)cccc2Cl)s1` [Compound 98, 2-(2-methoxy-phenylamino)-4-methyl-thiazole-5-carboxylic acid 2-chloro-6-methyl-benzylamide] registered a melting point of 105.4 to 107.6 °C. Also, the remaining activity at 1 µM in data set [2] (setting [5]) stood at 59%. The remaining activity at 1 µM in data set [2] (setting [6]) was determined as 90%.
The matching figures for `COc1ccccc1Nc1nc(C)c(C(=O)NCc2ccc3c(c2)CCO3)s1` [Compound 104, 2-(2-methoxy-phenylamino)-4-methyl-thiazole-5-carboxylic acid (2,3-dihydro-benzofuran-5-ylmethyl)-amide]: 136.5 to 140.1 °C, 77% and 93%.
For `COc1ccccc1Nc1nc(C)c(C(=O)NCc2ccc(N(C)C)cc2)s1` [Compound 105, 2-(2-methoxy-phenylamino)-4-methyl-thiazole-5-carboxylic acid 4-dimethylamino-benzylamide], the melting point lay within 183.3 to 185.2 °C. Also, the remaining activity at 1 µM in data set [2] (setting [5]) was 61%. In addition, the remaining activity at 1 µM in data set [2] (setting [6]) was found to be 77%.
With `COc1ccccc1Nc1nc(C)c(C(=O)NCc2ccc(C(C)(C)C)cc2)s1` [Compound 106, 2-(2-methoxy-phenylamino)-4-methyl-thiazole-5-carboxylic acid 4-tert-butyl-benzylamide], the melting point was in the range of 168.5 to 169.4 °C. In addition, the remaining activity at 1 µM in data set [2] (setting [5]) came to 58%. Further, in data set [2] (setting [6]), the remaining activity at 1 µM amounted to 98%.
`COc1ccccc1Nc1nc(C)c(C(=O)NCc2ccc(Br)cc2)s1` [Compound 108, 2-(2-methoxy-phenylamino)-4-methyl-thiazole-5-carboxylic acid 4-bromo-benzylamide]: the melting point fell in the range of 150.7 to 154.2 °C. In addition, in data set [2] (setting [5]), the remaining activity at 1 µM came out at 59%. Moreover, in data set [2] (setting [6]), the remaining activity at 1 µM amounted to 82%.
The corresponding values for `Cc1nc(Nc2ccc3occc3c2)sc1C(=O)N[C@H]1CCC[C@@H]1OCc1ccccc1` [Compound 126, 2-(benzofuran-5-ylamino)-4-methyl-thiazole-5-carboxylic acid ((1S,2S)-2-benzyloxycyclopent-1-yl) amide] are 164.4 to 169.3 °C, 58% and 89%.
The corresponding values for `Cc1nc(NC(=O)c2ccc(C(C)(C)C)cc2)sc1C(=O)N[C@H]1CCC[C@@H]1OCc1ccccc1` [Compound 180, 2-(4-tert-butyl-benzoylamino)-4-methyl-thiazole-5-carboxylic acid ((1S,2S)-2-benzyloxycyclopent-1-yl) amide] are 88.7 to 90 °C, 73% and 97%.
